In brackets after ≈: the same amount, converted by molar mass.
Tested on: A. baumannii ATCC19606 resistant mutant
Assay: microbe, parasite or virus in culture
Format: cell-based

SMILES: CCOc1cc(Nc2ccc3nc(-c4ccc(F)cc4)cc(N)c3c2)nc(N)n1 [Compound 9a, N^6-(2-Amino-6-ethoxypyrimidin-4-yl)-2-(4-fluorophenyl)quinoline-4,6-diamine]
- MIC (Acinetobacter baumannii, ATCC19606, read-out: MIC mutant): 4 µg/mL (≈ 10.2 µM)
- fold increase of MIC (mutant CH5080 vs parent A. baumannii ATCC19606): 2
